Measurements: patent publication US5906922A, “Delivery of nucleic acids” (Commonwealth Scientific and Industrial Research Organisation, priority 1994, dated 1999)
Where two headings read alike, the source gives them in different places. Where a SMILES comes first, the peptide text is derived from it. The star is where a group is joined. NHC(CH2O-Palmitoyl)3 = CCCCCCCCCCCCCCCC(=O)OCC(COC(=O)CCCCCCCCCCCCCCC)(COC(=O)CCCCCCCCCCCCCCC)N*; X1 = CCCCCCCCCCCCCCCC(=O)OCC(CO)(CO)N*

Experiments:
CHO cells [1] = experiment: Transfection of pSVLCAT, CAT assay, CHO; format: cell-based, Chinese Hamster; settings: for Transfection (CAT): Table 1, CHO, optimised level of agent
Experimental: Protocol was the same for Verafectin and Transfectam (see above) with the exception that 0.5 μg of pSVLCAT DNA was used /60 mm dish.
Lipofectamine protocol was according to manufacturer's instructions. 0.5 μg pSVLCAT/60 mm dish. CHO cells seeded 1×10^5 /60 mm dish and adhered overnight in DME/Hams medium with 10% FCS.
Transfectam 5 or 10 μl 1mg/400 μl stock solution.
Lipofectamine 5 or 10 μl 2 mg/ml (mixed formulation 3:1 with DOPE). VerafectinA3 (K3ATP3) and VerafectinG2 (K3G[Glycine]TP2) each at 5, 10 and 15 μl of 2 mM (2.8 and 2.3 mg/ml respectively) stock.
The serum free incubation period in the presence of test agents and DNA was 6 hours, then 1 ml DME/Hams+10% FCS was added. At 24 hrs the medium was changed to 2 ml of fresh DME/Hams+10% FCS until harvest at 48 hrs.
(§1) Cell lines Cos 1 or CHO were transfected with 0.5 μg of pSVLCAT or 2 μg of pPGKlacZ plasmid using a range of concentrations of each transfection compound. The optimal concentration of compound, that is the concentration giving the highest level of CAT at 48 hours or the greatest percentage of lac z (β-galactosidase) staining cells at 24 hours was used to collate data for Table 1. As all compounds were not tested in a single experiment, absolute figures indicating transfection were not used. Rather, symbols are used to indicate the transfection efficiency relative to Lipofectamine (BRL), which was included as a control in all experiments. Table 1 thus indicates the relative efficiencies of a number of compounds in mediating the transfection of at least one cell type.
All test lipopeptide reagents were originally dissolved at 10 mM in 75% DMSO, and subsequently diluted with water to make a 2 mM stock stored at 4° C. Volumes of 2 mM stock lipopeptide ranging from 2 μl to 15 μl were diluted in 500 μl of DDME. 1 μg of plasmid pSVLCAT was separately diluted in 500 μl of DDME. Solutions were combined for 10-20 min at room temperature before adding to 500 μl of DDME in 60 mm dishes of subconfluent CHO cells (2×10^5 day-1) or Cos 1 cells (5×10^5 day-1); washed free of serum with DDME.
Cells were incubated for 6 hrs under standard conditions of 37° C. and 5% CO2 for 6 hours. 1.5 ml of DME/Hams+10% FCS (CHO) or DME+10% FCS (Cos 1) was added to the cells for overnight incubation. Fresh DME/Hams+10% FCS or DME+10% FCS was used to replace the medium for a further 24 hours prior to harvest. Cell lysates were prepared and assayed for CAT activity as described above. For Cos 1 cells, culture supernatants were assayed for CAT activity.
a. Using the standard transfection procedure described above, and 1 μg plasmid pSVLCAT, these formulations were tested on CHO cells at a single concentration equivalent to 10 μl of Verafectin A2 (2 mM) per sample and compared to unformulated compound and Lipofectamine in the same cell type. CAT production was assayed 48 hours after transfection.

CHO cells [2] = experiment: Proportion of cells transfected (β-gal staining), CHO; format: cell-based, Chinese Hamster
Experimental: as §1
These conjugates were used to transfect CHO and Cos 1 cells with pPGKlacZNLS for estimation of the proportion of cells transfected. The transfection conditions used were as described above for the CAT experiments with cells being grown in 35 mm dishes for transfection. Cells were seeded the day prior to transfection at a density of 3.4×10^5 /dish (Cos 1) or 6.8×10^4 /dish (CHO). […] Random fields of cells were examined under the light microscope and the proportion of blue (β-GAL expressing) cells was determined. […]

CHO cells [3] = format: cell-based, Chinese Hamster
Experimental: (LEGEND--FIGS. 7, 8 and 9; none; no agent used with plasmid DNA, rb/blank; reagent blank, number following description of compound indicates no. μl of 2 mM stock (diluted with water). 7b: 100% cell survival was taken from dishes which were "mock transfected" with no DNA or transfection agent. 0% viability was assayed in the absence of cells. Viability was assessed using the dye alamar blue.)
(§2) Relative levels of cytotoxicity caused by the different agents were compared during the experiment using the dye "Alamar Blue" (Alamar, Sacramento Calif.).
(§3) The ratio of [lipid]/[DNA] at which that maximum was achieved is shown in brackets for the two different cell types in the following order; (Cos 1) (CHO). Experiments shown were carried out in Cos 1 cells, as described above. Viability was measured with the dye alamar blue . # Denotes compounds tested in a separate experiment. * Viability in this experiment was determined with MTS. OD is a measure of relative viability of the cells exposed to the different agents, and as with alamar blue, a higher value indicates greater cell viability.

Cos 1 cells [4] = format: cell-based, African Green Monkey
Excerpt: as §2
(§4) For experiment "c", a plasmid pPGKlaczNLS encoding β-galactosidase under the control of the mouse PGK promoter (kind gift from G.Hannan) or pSVGAL which utilises the SV40 early promoter (Sleigh, M. J. and Lockett, T. J. (1985). EMBO J. 4:3831-3837),was transfected. This experiment and assay were modified from Feigner et al J. Biol Chem. 269(4) 2550-2561 1994. This protocol allows the simultaneous assessment of 72 different combinations and concentrations of DNA and test agent in a microtitre tray. […] Cytotoxicity was assessed using alamar blue, and a sample graph is shown for experiment a.
(§5) The ratio of [lipid]/[DNA] at which that maximum was achieved is shown. Experiments shown were carried out in Cos 1 cells, as described above. MTS OD is a measure of relative viabilility of the cells exposed to the different agents, a higher value indicates greater cell viability. * These points were taken from a separate experiment and some slight variation between absolute numbers should be expected between experiments.
as §3

CHO cells [5] = experiment: β-gal microtitre plate transfection assay, CHO; format: cell-based, Chinese Hamster; settings: Table 3, CHO, highest reading of 72 conditions
Excerpt: as §4
(§6) Each of these compounds was tested for transfection ability and cytotoxicity on standard cell lines using standard conditions as described above.
as §3

Hela cells = experiment: β-gal plate transfection assay, Hela; format: cell-based, Human; settings: 48 hours
Experimental: Hela cells were seeded in place of Cosl or CHO cells in DME+10% FCS at a density of 2×10^4 /well and transfected with pPGKlaczNLS as described above. At 48 hours, toxicity was determined by alamar blue and the cells processed for the β-gal assay.

Cos 1 cells [6] = experiment: β-gal microtitre plate transfection assay, Cos 1; format: cell-based, African Green Monkey; settings: for β-gal (Cos 1): Table 3, Cos 1, highest reading of 72 conditions
Excerpt: as §4
Compounds were tested for their ability to transfect either the CAT or β-gal gene carried on plasmids, and assayed as described above.
as §5, §6, §3

Cos 1 cells [7] = experiment: Transfection of pSVLCAT, CAT assay, Cos 1; format: cell-based, African Green Monkey; settings: for Transfection (CAT): Table 1, Cos 1, optimised level of agent
Cos 1 cells [8] = format: cell-based, African Green Monkey; remark: listed apart in the source
Experimental: Relative levels of cytotoxicity were also assayed in subsequent experiments using the dye MTS, marketed as Cell titre 96 Aqueous (Promega).
as §5, §3

mammalian cells = experiment: Transfection efficiency, general conclusions over cell lines; format: cell-based; settings: other experiments (not shown)
Experimental: as §1
The compounds of the generic formula described on page 3 were addressed as consisting of the described basic building blocks: "x, y, R1-R4". These components were systematically varied to assess the optimal building blocks for transfection of standard cell lines in a standard assay system. Results will be presented by the use of example experiments, and shown as the levels of reporter gene expression achieved under standard conditions by either overall levels (CAT or β-galactosidase expression) or as % cells transfected (β-galactosidase--blue cells). Representative levels of cytotoxicity will also be described. […]

Cos 1 cells [9] = experiment: Proportion of cells transfected (β-gal staining), Cos 1; format: cell-based, African Green Monkey; settings: Table 1, Cos 1, % of cells
Experimental: as §1
These conjugates were used to transfect CHO and Cos 1 cells with pPGKlacZNLS for estimation of the proportion of cells transfected. The transfection conditions used were as described above for the CAT experiments with cells being grown in 35 mm dishes for transfection. Cells were seeded the day prior to transfection at a density of 3.4×10^5 /dish (Cos 1) or 6.8×10^4 /dish (CHO). […] Random fields of cells were examined under the light microscope and the proportion of blue (β-GAL expressing) cells was determined.

Q: Which CAT transfection (CHO cells [1]; "x" peptide experiment a, CHO) does the source give for `CCCCCCCCCCCCCCCC(=O)OCC(COC(=O)CCCCCCCCCCCCCCC)(COC(=O)CCCCCCCCCCCCCCC)NC(=O)[C@H](C)N` [K0ATP3] here?
A: no measurable transfection

Q: What about the “transfection (β-gal assay)” value (CHO cells [2]; CHO cells) of the same molecule?
A: low levels of transfection

Q: `CCCCCCCCCC(=O)OCC(COC(=O)CCCCCCCCC)(COC(=O)CCCCCCCCC)NC(=O)[C@H](C)NC(=O)[C@H](CCCCN)NC(=O)[C@H](CCCCN)NC(=O)[C@@H](N)CCCCN` [K3ATC3] was tested. Which “Viability (CHO)” value (CHO cells [3]) did it give?
A: 0.052

Q: What about the “Viability (Cos 1)” value (Cos 1 cells [4]) of the same molecule?
A: 0.104

Q: What about the “β-gal (CHO)” value (CHO cells [5]) of the same molecule?
A: 5.27 × 10^-6

Q: And the “transfection ability, chain length C10 to C16” value (Hela cells)?
A: transfection ability was seriously curtailed

Q: And the “ratio [lipid]/[DNA] at which maximum was achieved” value (from here on “ratio [lipid]/[DNA]”) (Cos 1 cells [6]; Table 3, Cos 1)?
A: 2.77

Q: And the “β-gal (Cos 1)” value (Cos 1 cells [6])?
A: 9.08 × 10^-6

Q: Which “Transfection (CAT)” value (CHO cells [1]) does the source give for `CCCCCCCCCCCCCCCC(=O)OCC(CO)(CO)NC(=O)[C@H](C)NC(=O)[C@H](CCCCN)NC(=O)[C@H](CCCCN)NC(=O)[C@@H](N)CCCCN` [K3ATP1, trilysine alanine tris monopalmitate] (H-KKKA-X1) here?
A: +

Q: And the “Transfection (CAT)” value (Cos 1 cells [7])?
A: +

Q: What about the “ratio [lipid]/[DNA]” value (Cos 1 cells [6]; Table 2, Cos 1) of the same molecule?
A: 5.55

Q: And the “units β-gal” value (Cos 1 cells [6]; Table 2, Cos 1, highest reading of 72 conditions)?
A: 9.32 × 10^-6 units

Q: What about the “ratio [lipid]/[DNA]” value (Cos 1 cells [6]; Table 3, Cos 1) of the same molecule?
A: 5.55

Q: And the “β-gal (Cos 1)” value (Cos 1 cells [6])?
A: 9.32 × 10^-6

Q: And the “MTS OD490-655” value (Cos 1 cells [8])?
A: 1.34

Q: What about the “Viability (Cos 1)” value (Cos 1 cells [8]) of the same molecule?
A: 1.34

Q: What about the “activity relative to tripalmitate K3 molecules” value (mammalian cells) of the same molecule?
A: 30%

Q: With `CCCCCCCCCCCCCCCC(=O)OCC(CO)(COC(=O)CCCCCCCCCCCCCCC)NC(=O)CNC(=O)[C@H](CCCCN)NC(=O)[C@H](CCCCN)NC(=O)[C@@H](N)CCCCN` [K3GTP2] as the molecule, how does the “CAT levels relative to Lipofectamine” value (CHO cells [1]; Experiment 3, CHO, 5 μl) read?
A: ~22%

Q: And the “CAT levels relative to Transfectam” value (CHO cells [1]; Experiment 3, CHO, 5 μl)?
A: approximately 64%

Q: And the “Transfection (CAT)” value (CHO cells [1])?
A: +++

Q: What about the “Transfection (βGal)” value (CHO cells [2]; Table 1, CHO, % of cells) of the same molecule?
A: < 1%

Q: What about the “transfection level relative to Lipofectamine” value (Cos 1 cells [7]; Experiment 4, Cos 1, 48 hours) of the same molecule?
A: ~30%

Q: And the “effect of equimolar DOPE on transfection efficiency” value (Cos 1 cells [7]; Experiment 4, Cos 1, compared to VerafectinG2 alone)?
A: approximate doubling of transfection efficiency

Q: What about the “transfection level with equimolar DOPE relative to Lipofectamine” value (Cos 1 cells [7]; Experiment 4, Cos 1, plus equimolar unformulated DOPE) of the same molecule?
A: approximately 60%

Q: What about the “Transfection (CAT)” value (Cos 1 cells [7]) of the same molecule?
A: ++

Q: Which “Transfection (βGal)” value (Cos 1 cells [9]) does the source give for `CCCCCCCCCCCCCCCC(=O)OCC(COC(=O)CCCCCCCCCCCCCCC)(COC(=O)CCCCCCCCCCCCCCC)NC(=O)[C@H](C)NC(=O)[C@H](CCCCN)NC(=O)[C@H](CCCCN)NC(=O)[C@H](CCCCN)NC(=O)[C@@H](N)CCCCN` [K4ATP3] (H-KKKKA-{NHC(CH2O-Palmitoyl)3}) here?
A: < 1%

Q: What about the “mean level of CAT activity” value (CHO cells [1]; "x" peptide experiment c, CHO, 2 hours incubation of 20 μl lysate) of the same molecule?
A: 1071

Q: And the “transfection, one to three palmitates, tetra lysine alanine” value (Cos 1 cells [7]; R1-R4 experiment g, Cos 1)?
A: more effective than the di or monopalmitate

Q: What about the “Transfection (CAT)” value (Cos 1 cells [7]) of the same molecule?
A: +(+)
